Source: US20210045387A1, “COMPOSITIONS AND METHODS TO INHIBIT ARTHROPOD HOST-SEEKING BEHAVIOR” (The Rockefeller University, priority 2019, published 2021)

How the values were obtained:
[1] = tested on: NPY-like receptors in non-human organisms; assay: Cell-based GCaMP6s assay of related NPY-like receptors from a variety of organisms; conditions: HEK cells, GCaMP6s readout, FIG. 2
From the text: (§1) The six compounds were screened in vitro against the panel of all 49 known Ae. aegypti peptide receptors from both L3 and L5 genome annotations, as well as human NPY receptors. FIG. 2 illustrates the level of activation of related NPY-like receptors by Ae. aegypti NPYLR7 agonists in a variety of organisms in a cell-based assay. HEK cells were transfected with receptor cDNA, promiscuous Gα subunit, and GCaMP6s. Activation was read out as increase in GFP fluorescence and EC50 values were calculated on a 6 point dose-response curve (FIG. 2). The vertical axis of each box represents NPY-related receptors for each organism: for instance, Ae. aegypti has three receptors that were tested in this assay, while Ae. Albopictus has four. […] Albopictus. The horizontal axis indicates the compound tested. […] Compounds 6, 7, 2, 5, 1, and 9 were also tested.

[2] = tested on: Female mosquitoes; assay: Live host assay: blood-feeding on an anesthetized mouse (mark-release-recapture); assay type: in vivo, Ae. aegypti; conditions: 100 μM in saline fed two days prior
From the text: Females from each feeding group were separately marked with one of three different paint powders using the “shake in a bag” technique (Verhulst et al., 2013), and all three of these groups were pooled and allowed to recover together in a cage. […] Females were scored for powder color to indicate treatment condition and for the presence of fresh blood in the midgut. Similar to the results in host-seeking assays, non-blood-fed and saline-fed females consumed fresh blood at high levels. In contrast, females that had fed on sheep blood two days prior rarely consumed fresh blood. […] (Compound designations shown as circled numbers.)

[3] = tested on: human NPY receptors; assay: Cell-based GCaMP6s assay of human NPY receptor activation; conditions: HEK cells, GCaMP6s readout, FIG. 2
From the text: as §1

[4] = tested on: Aedes albopictus NPY-like receptors; assay: Cell-based GCaMP6s assay of Aedes albopictus NPY-like receptors; conditions: FIG. 2
From the text: as §1
(§2) Aedes albopictus host-seeking in a miniport olfactometer two days after feeding the indicated meals (n=6-34, 15-25 females/trial) is shown in FIG. 5. Data are plotted as median with range.

[5] = tested on: Aedes albopictus mosquitoes; assay: Miniport olfactometer host-seeking assay in Aedes albopictus; assay type: in vivo; conditions: two days after feeding, FIG. 5
From the text: as §2

| Compound | Activation of NPY-like receptors in non-human organisms [1] | Blood-feeding on a live host (anesthetized mouse) ([2]; 15 minutes access to mouse) | Blood-feeding on a live host, NPYLR7 mutants ([2]; NPYLR7 mutant females) | Activation of human NPY receptors [3] | Activation of Aedes albopictus NPY-like receptors in vitro [4] | Suppression of host-seeking in Aedes albopictus, miniport olfactometer [5] |
| --- | --- | --- | --- | --- | --- | --- |
| COc1ccc2c(C)nc(NC(=N)N)nc2c1 [Compound 1] | activate many of the receptors in non-human organisms | very low levels of blood-feeding on a live host | resistant to this effect | none of these compounds activates any of the human receptors |  |  |
| COc1ccc2nc(N)nc(C)c2c1 [Compound 2] | activate many of the receptors in non-human organisms |  |  | none of these compounds activates any of the human receptors |  |  |
| CCc1nc(NC(=N)N)nc2cc(C)ccc12 [Compound 5] | activate many of the receptors in non-human organisms |  |  | none of these compounds activates any of the human receptors |  |  |
| CC(C)(C)c1cnc(CSc2cnc(NC(=O)C3CCNCC3)s2)o1 [Compound 6] | activate many of the receptors in non-human organisms |  |  | none of these compounds activates any of the human receptors | activates Aedes albopictus NPY-like receptors in vitro | suppresses host-seeking in Aedes albopictus mosquitoes |
| COc1ccc(CC2c3cc(OC)c(OC)cc3CC[N+]2(C)CCC(=O)OCCCCCOC(=O)CC[N+]2(C)CCc3cc(OC)c(OC)cc3C2Cc2ccc(OC)c(OC)c2)cc1OC (centres unmarked) [Compound 9] | activate many of the receptors in non-human organisms |  |  | none of these compounds activates any of the human receptors |  |  |
